In ChEMBL document CHEMBL1155569, “Synthesis and structures of regioisomeric hydnocarpin-type flavonolignans” (J Nat Prod, 2000):
Calls of active or inactive are those of the source. The calls are words filed in the database; no cut-off is given here.

Biological target: T1, Quinolone resistance protein NorA (Staphylococcus aureus) (UniProt P0A0J7)
T1 sequence (whole entry): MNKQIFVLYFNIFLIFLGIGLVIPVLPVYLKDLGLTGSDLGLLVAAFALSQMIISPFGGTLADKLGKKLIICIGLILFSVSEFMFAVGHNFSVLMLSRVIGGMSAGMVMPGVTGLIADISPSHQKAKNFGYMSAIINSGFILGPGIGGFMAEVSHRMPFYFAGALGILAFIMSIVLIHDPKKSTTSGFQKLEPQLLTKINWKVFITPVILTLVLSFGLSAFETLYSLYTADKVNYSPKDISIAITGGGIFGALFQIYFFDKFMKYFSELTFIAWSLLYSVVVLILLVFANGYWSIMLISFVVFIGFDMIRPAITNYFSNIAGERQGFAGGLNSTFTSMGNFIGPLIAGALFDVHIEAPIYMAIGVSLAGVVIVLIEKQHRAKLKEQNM
Assay: Inhibition of Staphylococcus aureus NorA MDR efflux pump

Row | Activity | SMILES
1 | Active | COc1cc([C@H]2Oc3c(OC)cc(-c4cc(=O)c5c(O)cc(O)cc5o4)cc3O[C@@H]2CO)ccc1O (racemic)
2 | Active | COc1cc([C@H]2Oc3cc(-c4cc(=O)c5c(O)cc(O)cc5o4)cc(OC)c3O[C@@H]2CO)ccc1O (racemic)
3 | Active | COc1cc([C@H]2Oc3cc(-c4cc(=O)c5c(O)cc(O)cc5o4)ccc3O[C@@H]2CO)ccc1O (racemic)
4 | Active | COc1cc([C@H]2Oc3ccc(-c4cc(=O)c5c(O)cc(O)cc5o4)cc3O[C@@H]2CO)ccc1O (racemic)
